Data on 16 compounds can be found in US12441725B2, “ISO-citrate dehydrogenase (IDH) inhibitor” (ZHEJIANG METON PHARMACEUTICAL CO., LTD, priority 2019, dated 2025).

In assay [1] the target is T1, IDH (endogenous IDH1 R132C) in HT1080 cell (Homo sapiens, UniProt O75874, R132C).
T1 construct: which harbor endogenous heterozygous IDH1 R132C and R132H mutation respectively and accumulate D-2-HG
Put plainly: Cell-based assay for IDH inhibition (decrease of D-2-HG) in HT1080 cells. As to conditions: human fibrosarcoma cell line HT1080, 16 hours treatment, D-2-HG by LC-MS, in triplet. The gist of the method: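 HT1080 cells with endogenous IDH1 R132C, grown in DMEM/10% FBS, treated with compound at several concentrations for 16 h. Metabolites extracted in cold 40% methanol/40% acetonitrile and D-2-HG measured by HILIC LC-MS/MS, normalized to glutamate. IC50 from D-2-HG relative to DMSO controls; run in triplicate.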

For a further assay, the target named is T2, IDH1 R132H (Homo sapiens, UniProt O75874, R132H).
T2 construct: 6xHis
T2 sequence (O75874 whole entry R132H): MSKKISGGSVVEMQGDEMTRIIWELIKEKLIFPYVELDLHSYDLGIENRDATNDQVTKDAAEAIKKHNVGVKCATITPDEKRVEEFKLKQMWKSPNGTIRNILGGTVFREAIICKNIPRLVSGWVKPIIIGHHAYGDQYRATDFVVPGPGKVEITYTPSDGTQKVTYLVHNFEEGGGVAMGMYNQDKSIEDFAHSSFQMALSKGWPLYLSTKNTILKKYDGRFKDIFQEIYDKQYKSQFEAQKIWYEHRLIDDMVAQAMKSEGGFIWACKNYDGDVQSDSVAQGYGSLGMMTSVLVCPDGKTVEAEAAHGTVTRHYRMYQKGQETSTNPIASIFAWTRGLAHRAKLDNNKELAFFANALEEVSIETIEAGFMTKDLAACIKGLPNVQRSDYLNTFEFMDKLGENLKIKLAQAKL
Put plainly: Biochemical assay for IDH inhibition (NADPH fluorescence), mutant IDH1 R132H. As to conditions: 50 nM IDH1-R132H, 1 hour pre-incubation, in triplet. The gist of the method: (§1)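 Mutant enzyme (25 nM R132C or 50 nM R132H) was preincubated 1 h at room temperature with compound in pH 7.5 Tris buffer containing 1.33 mM α-KG, and the reaction was then started with NADPH (80 μM solution). NADPH consumption was followed by fluorescence (Ex 340/Em 460 nm) for 15 min. IC50 was derived from background-corrected linear rates relative to vehicle, run in triplicate.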

Another assay concerns the target T3, IDH1 R132C (Homo sapiens, UniProt O75874, R132C).
T3 construct: 6xHis
The assay is described as follows: Biochemical assay for IDH inhibition (NADPH fluorescence), mutant IDH1 R132C. As to conditions: 25 nM IDH1-R132C, 1 hour pre-incubation, in triplet. The gist of the method: as §1

T1 sequence (O75874 2-414 R132C): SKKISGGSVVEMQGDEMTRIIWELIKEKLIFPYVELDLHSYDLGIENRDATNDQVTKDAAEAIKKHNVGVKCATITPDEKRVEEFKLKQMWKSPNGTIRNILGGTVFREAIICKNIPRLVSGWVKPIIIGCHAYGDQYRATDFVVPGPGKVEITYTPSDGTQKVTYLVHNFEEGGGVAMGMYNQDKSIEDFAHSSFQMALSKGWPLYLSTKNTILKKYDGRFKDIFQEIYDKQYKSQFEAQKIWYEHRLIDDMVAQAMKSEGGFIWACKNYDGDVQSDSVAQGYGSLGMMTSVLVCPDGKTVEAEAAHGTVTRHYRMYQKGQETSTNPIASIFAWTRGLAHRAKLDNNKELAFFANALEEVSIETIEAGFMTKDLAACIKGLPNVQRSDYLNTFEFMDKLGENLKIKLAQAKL
T3 sequence (O75874 whole entry R132C): as the sequence (O75874 whole entry R132H) above, with H132C counted along it

With `CCN1Cc2c(ccnc2N[C@@H](C)c2cc(F)c(-c3cc(C(C)(C)F)ncc3OC)cc2F)C1=O` [Compound 132, (S)-4-((1-(2,5-difluoro-4-(2-(2-fluoropropan-2-yl)-5-methoxypyridin-4-yl)phenyl)ethyl)amino)-2-ethyl-2,3-dihydro-1H-pyrrolo[3,4-c]pyridin-1-one], the figures for the IC50 (in assay [1]; at IDH1 R132H; at IDH1 R132C) were 0.1 to 0.5 µM, under 0.1 µM and under 0.1 µM, respectively.

As to `CCN1Cc2c(ccnc2N[C@@H](C)c2cc(F)c(-c3cc(C(C)(C)F)c(F)c(C)n3)cc2F)C1=O` [Compound 133, (S)-4-((1-(2,5-difluoro-4-(5-fluoro-4-(2-fluoropropan-2-yl)-6-methylpyridin-2-yl)phenyl)ethyl)amino)-2-ethyl-2,3-dihydro-1H-pyrrolo[3,4-c]pyridin-1-one], the IC50 (in assay [1]; at IDH1 R132H; on IDH1 R132C) was under 0.1 µM throughout.

Take `CCN1Cc2c(ccnc2N[C@@H](C)c2cc(F)c(-c3nc(C)cc(C(C)(C)F)c3F)cc2F)C1=O` [Compound 134, (S)-4-((1-(2,5-difluoro-4-(3-fluoro-4-(2-fluoropropan-2-yl)-6-methylpyridin-2-yl)phenyl)ethyl)amino)-2-ethyl-2,3-dihydro-1H-pyrrolo[3,4-c]pyridin-1-one]: the IC50 (in assay [1]; on IDH1 R132H; on IDH1 R132C) was under 0.1 µM each time.

On to `CCN1Cc2c(ccnc2N[C@@H](C)c2cc(F)c(-c3cc(C(C)(C)F)c(OC)cn3)cc2F)C1=O` [Compound 135, (S)-4-((1-(2,5-difluoro-4-(4-(2-fluoropropan-2-yl)-5-methoxypyridin-2-yl)phenyl)ethyl)amino)-2-ethyl-2,3-dihydro-1H-pyrrolo[3,4-c]pyridin-1-one], for which the IC50 (in assay [1]; on IDH1 R132H; on IDH1 R132C) was under 0.1 µM in each case.

`CCN1Cc2c(ccnc2N[C@@H](C)c2cc(F)c(-c3cc(C(C)(C)F)c(Cl)cn3)cc2F)C1=O` [Compound 136, (S)-4-((1-(4-(5-chloro-4-(2-fluoropropan-2-yl)pyridin-2-yl)-2,5-difluorophenyl)ethyl)amino)-2-ethyl-2,3-dihydro-1H-pyrrolo[3,4-c]pyridin-1-one]: the IC50 (in assay [1]; at IDH1 R132H; on IDH1 R132C) was under 0.1 µM in each case.

Consider `CCN1Cc2c(ccnc2N[C@@H](C)c2cc(F)c(-c3cc(C(C)(C)F)c(F)cn3)cc2F)C1=O` [Compound 137, (S)-4-((1-(2,5-difluoro-4-(5-fluoro-4-(2-fluoropropan-2-yl)pyridin-2-yl)phenyl)ethyl)amino)-2-ethyl-2,3-dihydro-1H-pyrrolo[3,4-c]pyridin-1-one], for which the IC50 (in assay [1]; on IDH1 R132H; at IDH1 R132C) was under 0.1 µM throughout.

Consider `CCN1Cc2c(ccnc2N[C@@H](C)c2cc(F)c(-c3cc(C(C)(C)C)ncc3O)cc2F)C1=O` [Compound 138, (S)-4-((1-(4-(2-(tert-butyl)-5-hydroxypyridin-4-yl)-2,5-difluorophenyl)ethyl)amino)-2-ethyl-2,3-dihydro-1H-pyrrolo[3,4-c]pyridin-1-one], for which the IC50 (in assay [1]; at IDH1 R132H; on IDH1 R132C) was under 0.1 µM throughout.

With `CCN1Cc2c(ccnc2N[C@@H](C)c2cc(F)c(-c3cc(C(C)(C)F)ncc3CF)cc2F)C1=O` [Compound 139, (S)-4-((1-(2,5-difluoro-4-(5-(fluoromethyl)-2-(2-fluoropropan-2-yl)pyridin-4-yl)phenyl)ethyl)amino)-2-ethyl-2,3-dihydro-1H-pyrrolo[3,4-c]pyridin-1-one], the IC50 – broadly, the concentration that gives 50% inhibition – in assay [1] was under 0.1 µM; at IDH1 R132H it was under 0.1 µM; at IDH1 R132C it was 0.1 to 0.5 µM.

As to `CCN1Cc2c(ccnc2N[C@@H](C)c2cc(F)c(-c3cc(C(C)(C)F)nc(OC)n3)cc2F)C1=O` [Compound 141, (S)-4-((1-(2,5-difluoro-4-(6-(2-fluoropropan-2-yl)-2-methoxypyrimidin-4-yl)phenyl)ethyl)amino)-2-ethyl-2,3-dihydro-1H-pyrrolo[3,4-c]pyridin-1-one], the IC50 (in assay [1]; at IDH1 R132H; at IDH1 R132C) was under 0.1 µM in each case.

Take `CCN1Cc2c(ccnc2N[C@@H](C)c2cc(F)c(-c3cc(C(F)(F)F)cc(OC)n3)cc2F)C1=O` [Compound 142, (S)-4-((1-(2,5-difluoro-4-(6-methoxy-4-(trifluoromethyl)pyridin-2-yl)phenyl)ethyl)amino)-2-ethyl-2,3-dihydro-1H-pyrrolo[3,4-c]pyridin-1-one]: the results for the IC50 (in assay [1]; at IDH1 R132H; at IDH1 R132C) were 0.1 to 0.5 µM, under 0.1 µM and 0.1 to 0.5 µM, respectively.

Consider `CCN1Cc2c(ccnc2N[C@@H](C)c2cc(F)c(-c3cc(C(F)(F)F)ncc3OC)cc2F)C1=O` [Compound 143, (S)-4-((1-(2,5-difluoro-4-(5-methoxy-2-(trifluoromethyl)pyridin-4-yl)phenyl)ethyl)amino)-2-ethyl-2,3-dihydro-1H-pyrrolo[3,4-c]pyridin-1-one], for which the IC50 in assay [1] is 0.1 to 0.5 µM; on IDH1 R132H, under 0.1 µM; on IDH1 R132C it was 0.1 to 0.5 µM.

`CCN1Cc2c(ccnc2N[C@@H](C)c2cc(F)c(-c3cc(C(F)(F)F)ncc3O)cc2F)C1=O` [Compound 144, (S)-4-((1-(2,5-difluoro-4-(5-hydroxy-2-(trifluoromethyl)pyridin-4-yl)phenyl)ethyl)amino)-2-ethyl-2,3-dihydro-1H-pyrrolo[3,4-c]pyridin-1-one]: the IC50 (in assay [1]; on IDH1 R132H; at IDH1 R132C) was over 1 µM in each case.

With `CCN1Cc2c(ccnc2N[C@@H](C)c2cc(F)c(-c3cc(C(F)(F)F)ncc3OCOC)cc2F)C1=O` [Compound 145, (S)-4-((1-(2,5-difluoro-4-(5-(methoxymethoxy)-2-(trifluoromethyl)pyridin-4-yl)phenyl)ethyl)amino)-2-ethyl-2,3-dihydro-1H-pyrrolo[3,4-c]pyridin-1-one], the IC50 in assay [1] is 0.1 to 0.5 µM; on IDH1 R132H, under 0.1 µM; at IDH1 R132C it was under 0.1 µM.

In the case of `CCN1Cc2c(ccnc2N[C@@H](C)c2cc(F)c(-c3cc4c(cn3)COC4(C)C)cc2F)C1=O` [Compound 146, (S)-4-((1-(4-(1,1-dimethyl-1,3-dihydrofuro[3,4-c]pyridin-6-yl)-2,5-difluorophenyl)ethyl)amino)-2-ethyl-2,3-dihydro-1H-pyrrolo[3,4-c]pyridin-1-one], the IC50 (in assay [1]; at IDH1 R132H; on IDH1 R132C) was under 0.1 µM each time.

For `CCN1Cc2c(ccnc2N[C@@H](C)c2cc(F)c(-c3cc(C(C)(C)F)c(COC)cn3)cc2F)C1=O` [Compound 147, (S)-4-((1-(2,5-difluoro-4-(4-(2-fluoropropan-2-yl)-5-(methoxymethyl)pyridin-2-yl)phenyl)ethyl)amino)-2-ethyl-2,3-dihydro-1H-pyrrolo[3,4-c]pyridin-1-one], the IC50 (in assay [1]; on IDH1 R132H; on IDH1 R132C) was under 0.1 µM throughout.

With `CCN1Cc2c(ccnc2N[C@@H](C)c2cc(F)c(-c3cc(C(C)(C)F)c(C(F)(F)F)cn3)cc2F)C1=O` [Compound 148, (S)-4-((1-(2,5-difluoro-4-(4-(2-fluoropropan-2-yl)-5-(trifluoromethyl)pyridin-2-yl)phenyl)ethyl)amino)-2-ethyl-2,3-dihydro-1H-pyrrolo[3,4-c]pyridin-1-one], the IC50 (in assay [1]; on IDH1 R132H; on IDH1 R132C) was under 0.1 µM each time.
